Data: publication PMC7766697, “Toxicological Screening of Four Bioactive Citroflavonoids: In Vitro, In Vivo, and In Silico Approaches” (Molecules, 2020)
Like-named read-outs stand apart in the source and are kept apart here.

How the values were obtained:
VERO cells = assay: MTT-based cytotoxicity assay in VERO cells; assay type: cell-based, green Monkey; conditions: 48 h, 125 to 750 µg/mL (QRT effect at 250–750 µg/mL)
Experimental: (§1) VERO and MDCK cell lines were acquired from American Type Culture Collection (ATCC, Manassas, VA, USA). […] In vitro cytotoxicity assay was performed on Madin-Darby Canine Kidney Epithelial Cells (MDCK) and green Monkey Kidney Cells (VERO) by MTT-based assay. Briefly, cells were seeded in 96-well plates at a density of 2.5 × 10^3 cells/well. […] The absorbance was measured after 45 min using a microplate reader (Multiskan Asent®) at a wavelength of 550 nm. The criteria for categorizing cytotoxicity against MDCK and VERO cells are based on the U.S. National Cancer Institute (NCI). The criteria comprise as follow: […] All results were expressed as mean ± standard error. The results from the in vivo and in vitro experiments were analyzed using software Origin® 8.0. […] The IC50 (half inhibitory concentration) values were calculated in Origin software®, (Northampton, MA, USA) and one-way ANOVA analysis was compared with cisplatin as the control.

MDCK cells = assay: MTT-based cytotoxicity assay in MDCK cells; assay type: cell-based, Canine; conditions: 48 h, 125 to 750 µg/mL (QRT effect at 250 and 500 µg/mL)
Experimental: as §1

Wistar rats [1] = assay: Acute oral toxicity, OECD Test No. 423 (mortality, signs, LD50, body weight); assay type: in vivo; conditions: oral 300 mg/kg, days 7 and 10
Experimental: Female Wistar rats (250 g b.w.) were used. These animals were obtained from Bioterium from División de Ciencias de la Salud at the Universidad de Quintana Roo. They were maintained under standard environmental conditions (22 ± 3 °C, 12 h/12 h light/dark cycle), and free access to standard rodent diet and water ad libitum. All animal procedures were conducted under our Federal Regulations for Animal Experimentation and Care and were approved by the Institutional Animal Care and Use Committee of the “Universidad Juárez Autónoma de Tabasco” university (Code:2017-001, Approved: October 2017). Rats were acclimatized for 1 week before the start of experimental procedures.
The half lethal dose (LD50) was estimated using the fixed-dose method described in OECD Guidelines for the Testing of Chemicals (Test No. 423: Acute Oral Toxicity-Class Method; OECD, 2001). […] This method allowed a step-by-step assay according to the chosen dose to begin the experiment. Subsequently, depending on the presence or absence of mortality, the decision to continue within the next step is taken, so fewer experimental animals should be used.
(§2) Rats used for this experiment were fasted for 8 h and were organized into two groups of three rats for each dose and each flavonoid. Likewise, the control group received isotonic 0.9% sodium chloride solution (dose: 5 mL/kg). All rats were closely observed for toxic symptoms and behavioral changes (sedation, hyperactivity, writhing, pruritus, feeding and drinking habits, general morphological changes, and bite legs) for 30 min and periodically 24 h post-administration. Animals were observed daily (14 days) and mortality rate recorded. A LD50 was estimated according to criteria of OECD guide 423.
The rats’ body weight in each group was determined and recorded before the treatment initiation and after 14 days. Changes in the body weight at the end of the 14 days were calculated. Once observation time was completed and to detect any adverse effect, blood samples were collected by cardiac puncture after the previous fasting of 8 h. […] In addition, organ weight was determined.

Wistar rats [2] = assay type: in vivo; conditions: rats, after 14 days
Experimental: as §2
The rats’ body weight in each group was determined and recorded before the treatment initiation and after 14 days. Changes in the body weight at the end of the 14 days were calculated. Once observation time was completed and to detect any adverse effect, blood samples were collected by cardiac puncture after the previous fasting of 8 h. For this purpose, rats were anesthetized by intraperitoneally 50 mg/kg sodium pentobarbital. The liver was carefully extracted, rinsed in normal saline, drained on blotting paper, and carefully examined for tissue lesions. In addition, organ weight was determined.
Rat blood samples were analyzed by a hematology auto-analyzer system (Sysmex XS-1000i®, SYSMEX®, Oak Ridge, TN, USA). The parameters quantified on this stage were: blood count-packed cell volume (PCV), red blood cell (RBC) count, hemoglobin (Hb), platelet count, white blood cell (WBC) count, mean cell hemoglobin concentration (MCHC), mean red cell volume (MCV), mean cell hemoglobin (MCH), prothrombin time (PT), and activated partial thromboplastin time (aPTT).

Wistar rats [3] = conditions: rats; for ALB (albumin) / ALB/GL Ratio / ALT / AST / DB (direct bilirubin) / GL (globulin) / GLU (glucose) / IB (indirect bilirubin) / TB (total bilirubin) / TP (total protein): after 14 days, plasma
Sprague Dawley rats = test system: Sprague Dawley rats; set-up: method as in PMID 30991075; conditions: early report; cited from earlier work
Sprague-Dawley rats = test system: Sprague-Dawley rats; set-up: method as in PMID 28662177; conditions: sub-chronic oral, 13 weeks, cited from earlier work

COc1ccc([C@@H]2CC(=O)c3c(O)cc(O[C@@H]4O[C@H](CO[C@@H]5O[C@@H](C)[C@H](O)[C@@H](O)[C@H]5O)[C@@H](O)[C@H](O)[C@H]4O)cc3O2)cc1O [HESP, hesperidin]
percentage viability / growth of cells (VERO cells): did not change the percentage of growth | percentage viability / growth of cells (MDCK cells): did not change the percentage of growth | weight gain vs control (Wistar rats [1]): considerable weight gain differences | APTT (Wistar rats [2]; oral 300 mg/kg): 28.53 ± 4.31 s | Basophils (Wistar rats [2]; oral 300 mg/kg): 2.13±1.74 103/µL | Eosinophils (Wistar rats [2]; oral 300 mg/kg): 3.60±0.76 103/µL | Erythrocytes (Wistar rats [2]; oral 300 mg/kg): 7.90±0.30 106/µL | Hb (Wistar rats [2]; oral 300 mg/kg): 14.20 ± 0.37 g/dL | Hto (Wistar rats [2]; oral 300 mg/kg): 44.96±0.91% | Leukocytes (Wistar rats [2]; oral 300 mg/kg): 4.50±0.89 103/µL | Lymphocytes (Wistar rats [2]; oral 300 mg/kg): 72.27±4.36 103/µL | MCH (Wistar rats [2]; oral 300 mg/kg): 18.00 ± 0.24 pg | MCHC (Wistar rats [2]; oral 300 mg/kg): 31.56 ± 0.64 g/dL | MCV (Wistar rats [2]; oral 300 mg/kg): 57.06 ± 1.87 fL | Monocytes (Wistar rats [2]; oral 300 mg/kg): 7.07±1.50 103/µL | PT (Wistar rats [2]; oral 300 mg/kg): 17.86 ± 0.40 s | Platelets (Wistar rats [2]; oral 300 mg/kg): 720.00±125.23 105/µL | RBCDW (Wistar rats [2]; oral 300 mg/kg): 17.00±0.61% | APTT (Wistar rats [2]; oral 2000 mg/kg): 32.53 ± 3.93 s | Basophils (Wistar rats [2]; oral 2000 mg/kg): 0.00±0.00 103/µL | Eosinophils (Wistar rats [2]; oral 2000 mg/kg): 3.67±0.54 103/µL | Erythrocytes (Wistar rats [2]; oral 2000 mg/kg): 8.04±0.22 106/µL | Hb (Wistar rats [2]; oral 2000 mg/kg): 14.20 ± 0.36 g/dL | Hto (Wistar rats [2]; oral 2000 mg/kg): 43.26±0.89% | Leukocytes (Wistar rats [2]; oral 2000 mg/kg): 6.68±0.72 103/µL | Lymphocytes (Wistar rats [2]; oral 2000 mg/kg): 77.33±3.24 103/µL | MCH (Wistar rats [2]; oral 2000 mg/kg): 17.70 ± 0.24 pg | MCHC (Wistar rats [2]; oral 2000 mg/kg): 32.83 ± 0.35 g/dL | MCV (Wistar rats [2]; oral 2000 mg/kg): 53.86 ± 0.37 fL | Monocytes (Wistar rats [2]; oral 2000 mg/kg): 7.13±1.15 103/µL | PT (Wistar rats [2]; oral 2000 mg/kg): 17.73 ± 0.50 s | Platelets (Wistar rats [2]; oral 2000 mg/kg): 628.66±28.31 105/µL | RBCDW (Wistar rats [2]; oral 2000 mg/kg): 17.83±1.50% | ALB (albumin) (Wistar rats [3]; oral 300 mg/kg): 4.15 ± 0.20 g/dL | ALB/GL Ratio (Wistar rats [3]; oral 300 mg/kg): 2.36 ± 0.101 | ALT (Wistar rats [3]; oral 300 mg/kg): 33.78 ± 1.30 IU/L | AST (Wistar rats [3]; oral 300 mg/kg): 126.00 ± 13.18 IU/L | DB (direct bilirubin) (Wistar rats [3]; oral 300 mg/kg): 0.020 ± 0.005 mg/dL | GL (globulin) (Wistar rats [3]; oral 300 mg/kg): 1.76 ± 0.069 g/dL | GLU (glucose) (Wistar rats [3]; oral 300 mg/kg): 155.33 ± 18.71 mg/dL | IB (indirect bilirubin) (Wistar rats [3]; oral 300 mg/kg): 0.029 ± 0.003 mg/dL | TB (total bilirubin) (Wistar rats [3]; oral 300 mg/kg): 0.051 ± 0.002 mg/dL | TP (total protein) (Wistar rats [3]; oral 300 mg/kg): 5.91 ± 0.25 g/dL | ALB (albumin) (Wistar rats [3]; oral 2000 mg/kg): 4.20 ± 0.22 g/dL | ALB/GL Ratio (Wistar rats [3]; oral 2000 mg/kg): 2.38 ± 0.270 | ALT (Wistar rats [3]; oral 2000 mg/kg): 41.19 ± 2.83 IU/L | AST (Wistar rats [3]; oral 2000 mg/kg): 226.65 ± 44.80 IU/L | DB (direct bilirubin) (Wistar rats [3]; oral 2000 mg/kg): 0.018 ± 0.005 mg/dL | GL (globulin) (Wistar rats [3]; oral 2000 mg/kg): 1.80 ± 0.108 g/dL | GLU (glucose) (Wistar rats [3]; oral 2000 mg/kg): 192.06 ± 12.73 mg/dL | IB (indirect bilirubin) (Wistar rats [3]; oral 2000 mg/kg): 0.046 ± 0.010 mg/dL | TB (total bilirubin) (Wistar rats [3]; oral 2000 mg/kg): 0.060 ± 0.06 mg/dL | TP (total protein) (Wistar rats [3]; oral 2000 mg/kg): 5.99 ± 0.11 g/dL | glucose values vs control (Wistar rats [3]; oral, doses tested, more evident at NAR 300 and 2000 mg/kg and NARGE 300 mg/kg): slightly amended glucose values | acute oral LD50 (Sprague Dawley rats): 4837.5 mg/kg | weight gain (Sprague-Dawley rats; 1000 mg/kg): did at 1000 mg/kg | weight gain (Sprague-Dawley rats; 250 and 500 mg/kg): did not modify weight gain
